Reference: patent US20140288071A1, “INHIBITORS OF NOTUM […] AND METHODS OF THEIR USE” (priority 2011, published 2014)

Experiments:
[1] = tested on: F1 male hybrid (129×C57) mice; assay: Midshaft femur cortical thickness by microCT in treated mice; format: in vivo; settings: for increase in cortical bone thickness (midshaft femur) compared to control: starting at 8.7 weeks of age
Experimental: The compound was administered in the animals' diet. Four groups of mice were used: control (N=12); 25 mg/kg compound (N=9); 83 mg/kg compound (N=9); and an additional group wherein Li2CO3 was administered in the diet (0.1%) (N=9).
Midshaft femur cortical thickness was measured using a Scanco μCT40. […] For the Li2CO3 group, a decrease in cortical bone thickness of 2% (p=0.90) was observed. […]
Midshaft femur cortical thickness was measured by microCT (Scanco μCT40). […]

[2] = molecular target: T1, human notum pectinacetyltransferase (Homo sapiens, UniProt Q6P988); assay: Reporter assay (CellSensor LEF/TCF-bla FreeStyle 293F cells, Wnt3a and notum conditioned media); format: cell-based
T1 construct: made in house; conditioned medium used
T1 sequence (Q6P988 20-496): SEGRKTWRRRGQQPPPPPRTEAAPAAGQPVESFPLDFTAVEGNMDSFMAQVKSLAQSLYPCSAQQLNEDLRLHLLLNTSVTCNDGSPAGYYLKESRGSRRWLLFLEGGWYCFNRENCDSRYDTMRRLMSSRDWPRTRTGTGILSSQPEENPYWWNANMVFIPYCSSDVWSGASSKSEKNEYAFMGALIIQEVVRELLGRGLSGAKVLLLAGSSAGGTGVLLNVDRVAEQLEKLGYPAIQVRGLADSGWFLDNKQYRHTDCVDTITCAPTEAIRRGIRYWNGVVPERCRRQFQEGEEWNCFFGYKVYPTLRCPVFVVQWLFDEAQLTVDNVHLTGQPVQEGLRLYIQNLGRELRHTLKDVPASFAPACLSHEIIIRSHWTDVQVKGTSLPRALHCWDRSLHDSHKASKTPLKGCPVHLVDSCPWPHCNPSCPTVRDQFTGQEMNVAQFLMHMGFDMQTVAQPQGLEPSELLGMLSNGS
Experimental: Plasmid containing human notum pectinacetyltransferase in pcDNA3.1(+) vector was transfected into HEK293 cells and clones were selecting by growing in presence of 400 ug/mL of G418. […] L cells overexpressing and secreting Wnt3a into the conditioned media were purchased from ATCC.
The assay protocol was as follows. […] The cell growth medium consisted of DMEM with 10% Dialyzed FBS, 5 μg/ml Blasticidin (Invitrogen, R210-01), 0.1 mM NEAA, 25 mM HEPES and 1×GPS. Cells were then trypsinized by first rinsing with PBS, followed by addition of 5 mL of trypsin and incubation of plates at room temperature for two minutes. A total of 10 mL of assay media (Opti-MEM, plus 0.5% dialyzed FBS, 0.1 mM NEAA, 1 mM sodium pyruvate, 10 mM HEPES, 1×GPS) was then added per 15 cm plate. Cells were counted and suspended at 0.75 million cells per mL. […] After incubation of cells at 37° C. for 3 hours, 10 μL of 30 mM LiCl in assay medium was added per well, followed by incubation at 37° C. for another 3 hours. […] Ten μL of the Wnt3a/notum pentinacetyltransferase mixture was then transferred from Greiner plates to each well of the 384-well plates containing the CellSensor cells. After incubation of cells overnight at 37° C., reactions were developed by addition of […] of 1×CCF4 (Invitrogen, Catalogue number K1085) to each well, covering the entire 384-well plate, and gentle rocking in the dark at room temperature for 3 hours.

[3] = molecular target: T1, human notum pectinacetyltransferase; assay: Binding assay (OPTS esterase substrate, fluorimetric); format: biochemical; settings: OPTS substrate 5 μM
Experimental: Plasmid containing human notum pectinacetyltransferase in pcDNA3.1(+) vector was transfected into HEK293 cells and clones were selecting by growing in presence of 400 ug/mL of G418. Condition media from these cells was used for the assay.

[4] = tested on: Fischer 344 ovariectomized rats; assay: Midshaft femur and tibia cortical thickness by microCT in sham and ovariectomized rats; format: in vivo; settings: target dose 30 mg/kg in diet, five weeks, ANOVA p=0.05 for treatment
Source text: The pharmacology of 2-((5-chloro-6-methylthieno[2,3-d]pyrimidin-4-yl)thio)acetic acid was studied in Fischer 344 ovariectomized rats. The rats underwent ovariectomies or sham surgery at 43 or 46 weeks of age, and treatment with the compound started at 37 or 40 weeks thereafter, at 83 weeks of age.
Four treatment groups were used: sham-surgery given control diet (N=14); sham-surgery given compound (N=12); OVX-surgery given control diet (N=14); and OVX-surgery given compound (N=12). The compound was dosed by incorporating it into the rats' diet: 0.46 grams of compound per kg of diet. The target dose was 30 mg/kg. Dosing occurred for five weeks.
Bone mass and architecture was determined by microCT, using a Scanco μCT40. […] The difference between the cortical bone thicknesses of the sham control and OVX control was −13%. Two-factor ANOVA values were: p<0.001 for OVX surgery; p=0.05 for treatment; and p=0.65 for interaction.
Two-factor ANOVA values were: p=0.79 for OVX surgery; p=0.05 for treatment; and p=0.52 for interaction.

EC50 [2] [nM] | IC50 [3] [nM] | SMILES | increase in cortical bone thickness (midshaft femur) compared to control ([1]; 5 mg/kg twice daily oral gavage, 25 days, p=0.002) [%] | increase in cortical bone thickness (midshaft femur) compared to control ([1]; 10 mg/kg twice daily oral gavage, 25 days, p=0.007) [%] | increase in cortical bone thickness (midshaft femur) compared to control ([1]; 15 mg/kg twice daily oral gavage, 25 days, p=0.001) [%] | increase in midshaft femur cortical bone thickness ([4]; intact (sham) rats) [%] | increase in midshaft tibia cortical thickness ([4]; intact (sham) rats) [%] | increase in midshaft femur cortical bone thickness ([4]; ovariectomized rats) [%] | increase in midshaft tibia cortical thickness ([4]; ovariectomized rats) [%] | increase in midshaft femur cortical bone thickness compared to control ([1]; first experiment, 10 mg/kg daily oral gavage, 25 days, starting at 54 weeks of age, p=0.06) [%] | increase in midshaft femur cortical bone thickness compared to control ([1]; first experiment, 100 mg/kg daily oral gavage, 25 days, starting at 54 weeks of age, p=0.03) [%] | increase in midshaft femur cortical bone thickness compared to control ([1]; second experiment, 34 mg/kg in diet, 18 days, starting at 8.1 weeks of age, p<0.01) [%] | increase in midshaft femur cortical bone thickness compared to control ([1]; second experiment, 34 mg/kg in diet, seven days, starting at 8.1 weeks of age, p=0.13) [%]
< 1000 | < 25 | CC(C)c1sc2ncnc(SCC(=O)O)c2c1Cl [2-((5-chloro-6-isopropylthieno[2,3-d]pyrimidin-4-yl)thio)acetic acid] | 6 | 5 | 6 |  |  |  |  |  |  |  | 
< 1000 | < 25 | Cc1sc2ncnc(SCC(=O)O)c2c1Cl [2-((5-chloro-6-methylthieno[2,3-d]pyrimidin-4-yl)thio)acetic acid] |  |  |  | 3 | 2 | 5 | 5 |  |  |  | 
< 1000 | < 25 | Cc1c(Cl)sc2c(SCC(=O)O)ncnc12 [2-((6-chloro-7-methylthieno[3,2-d]pyrimidin-4-yl)thio)acetic acid] |  |  |  |  |  |  |  | 6 | 7 | 10 | 6
